Where two headings read alike, the source gives them in different places.

We go through six compounds from patent US8034833B2, “Phosphorus binder for treatment of renal disease” (Biolink Life Sciences, Inc., priority 2008, dated 2011).

The conditions of data set [1]: intravenous administration, cited from earlier work.
For data set [2] the following is noted: cited from earlier work.
For data set [3] the following is noted: in many patients; cited from earlier work.
Data set [4] relates to parathyroid hormone (PTH) secretion. Particulars: maintenance dialysis patients; cited from earlier work.
For data set [5] the following is noted: cited from earlier work. This is another data set of the same source.
Data set [6] can be described thus: Solubility in water of cationic phosphate binders (Lange's Handbook). Particulars: relative hydrophile by solubility in water.
The conditions of data set [7]: pH 6.0; Sheikh et al. (Note 2); cited from earlier work.
For data set [8] the following is noted: 77 mEq per os; normal subjects; cited from earlier work.
For data set [9] the following is noted: hemodialysis or peritoneal dialysis patients; cited from earlier work.

On to `C[N+](C)(C)C[C@H](O)CC(=O)[O-]` [L-carnitine, L-(−)-Carnitine], for which the “effect on total, LDL and HDL cholesterol” value in data set [1] is “decrease total cholesterol and LDL cholesterol while significantly increasing HDL cholesterol”. Also, the “effect on serum phosphate concentrations” value in data set [1] (maintenance hemodialysis patients) is recorded as “reduced the serum phosphate concentrations significantly”.

For `[Mg+2].[OH-].[OH-]` [Magnesium Hydroxide], the “serum Pi level” value in data set [2] (average 734 mg elemental Mg/day, three to five weeks, control (no binders) 9.0 mg/dL) is recorded as 8.1 mg/dL; in data set [5] (human, in vivo), 6.1 mg/dL. In addition, the “mean serum Mg level” value in data set [2] (average 734 mg elemental Mg/day, dialysate Mg 1.2 to 1.8 mg/dl) is recorded as 4.32 mg/dL. Besides, the “patients who developed diarrhea” value in data set [2] (nine patients treated) was “Four of nine”. In addition, the severe hyperkalemia in [3] is ≤ 8 mEq/L. Further, the “suppression of parathyroid hormone (PTH) secretion” value in data set [4] is “Neither the combination of oral calcium carbonate/magnesium hydroxide nor magnesium hydroxide alone was effective”. Further, the “serum Mg level, average” value in data set [5] (during Mg(OH)2 treatment) is reported as 4.3 mg/dL.

Turning to `[O]=[Mg]` [Magnesium Oxide], the “Hydrophile?” value in [6] was “No”.

Take Calcium Gluconate: in [7], the “Observed in vitro Pi Binding, %” value is on record as 90%.

On to Magnesium Acetate, for which the Pi absorption in data set [8] is reported as 28%.

choline magnesium trisalicylate: the “effect on serum Pi levels” value in data set [9] is recorded as “no effect”.
